Source: patent US20050171005A1, “Methods and compositions for modulating beta-catenin phosphorylation” (priority 2002, published 2005)
Where a SMILES comes first, the peptide text is derived from it. The star is where a group is joined. Cbz = O=C(OCc1ccccc1)*

Key:
β-catenin [1] = format: cell-based, human; settings: 293 cells; CKI-7 100 μM for 16 hr; H89 data not shown
Method: (§1) 293T cells were transiently transfected using the calcium phosphate procedure. The following expression vectors were used: Myc- or Flag-tagged β-catenin (0.5 μg) (a human β-catenin clone obtained from R. Grosschedl), Flag- or Myc-tagged axin (2 μg) (mouse cDNA provided by F. Costantini), HA-GSK3β or Flag-GSK3β (3.5 μg) (a rabbit clone obtained from J R Woodgett) [Woodgett, J. R. (1990) EMBO J 9: 2431-2438]. β-catenin mutants include DP, (S33, S37, T40, S45, S47 substituted to alanine) single point mutants (S29F, S33Y, S37A, T41A, S45F) and 45PKA (T41S, T42R, A43R). Additional vectors: Flag-WD, a dominant negative β-TrCP fragment (ΔF-box) [Yaron, A. et al. (1998) Nature 396: 590-594]; Flag-Dvl-1 (a mouse cDNA clone obtained from S-I Yanagawa) [Lee, J. S. et al. (1999) J Biol Chem 274: 21464-21470]; WT and dominant negative Xenopus CKIε (XCKIε-D128N) (provided by T. Shcwarz-Romond) [McKay, R. M. et al. (2001) Dev Biol 235: 378-387]. 24-48 hr after transfection, cells were harvested and processed for the various experiments. MG-132 (Sigma) was used at 20 μM for 5 hr; LiCl (40 mM) was added for 6 hr, and CKI-7 (100 μM) for 16 hr prior to harvesting. β-catenin, axin or GSK-30 in cell lysates were detected using anti-Myc (Ab-1, Oncogenes Research Products, 2 μg/ml), anti-Flag (M2, Sigma, 1 μg/ml) and anti-HA (12CA5 ascites fluid; 1:5000) antibodies, respectively. GFP expression was monitored with anti-GFP antibody (JL-8, Clontech, 1 μg/ml). In some experiments (FIG. 4) GSK-3β was detected using anti-GSK-3β monoclonal antibodies (clone 7, Transduction Laboratories, 0.1 μg/ml). Endogenous and exogenous β-catenin (FIGS. 5d and 6a) were detected with anti-β-catenin antibodies (clone 14, Transduction Laboratories) (0.25 μg/ml).
Western blot and mass spectrometry (MS). Three different commercial anti-β-catenin phospho-peptide antibodies were used: i) Anti-phospho-Thr41/Ser 45 (Cell Signaling Technology), a polyclonal antibody specific for both pT41 and pS45 (otp41,45). ii) Anti-phospho-Ser33/37/Thr41 (Cell Signaling Technology), a polyclonal antibody recognizing pS33 (αp33). These two polyclonal antibodies were used at a 1:1000 dilution, according to the manufacturer's instructions. iii) anti-phospho-Ser 33/37 (BC-22, Sigma), a monoclonal antibody specific for pS37 (used as ascites fluid at a 1:3000 dilution; αp37). Antibody specificities were determined by phosphopeptide inhibition studies. D^32S(PO4)GIHSGATTTAPS^45 abolished the αp33, but not the αp37 signal; D^32SGIHS(PO4)GATTTAPS^45 blocked the αp37 but not the αp33 signal. […] Proteins for MS analysis were immunopurified by M2 Flag-affinity beads (Sigma), separated by SDS-PAGE, Coomassie stained and the β-catenin bands were in-gel digested with endoproteinase Asp-N. The resulting peptides were desalted on small columns, eluted with 20% MeOH, 5% HCOOH, and analyzed by nanoelectrospray mass spectrometry [Yaron et al. (1998) id ibid.], using a quadrupole time-of-flight mass spectrometer (PE-Sciex, Canada).
GSK-3β is traditionally known to target the phosphorylation of +4P-primed substrates [Frame, S. et al. (2001) Mol Cell 7: 1321-1327], a specificity supported by recent structural studies of the enzyme [Dajani, R. et al (2001) Cell 105: 721-732]. The fact that the S45 phosphorylation site is not preceded by a +4P priming site led to the proposition that the molecular complex of axin and GSK-3β is capable of bypassing the priming requirement of the uncomplexed enzyme [Cohen and Frame (2001) id ibid.]. To assess the contribution of GSK-30 in axin-mediated S45 phosphorylation, two types of experiments were carried out. In the first set, 293 cells were incubated prior to harvesting with LiCl, a GSK-3β inhibitor capable of mimicking a Wnt effect [Klein, P. S. and D. A. Melton (1996) Proc Natl Acad Sci USA 93: 8455-8459; Stambolic, V. et al. (1996) Curr Biol 6: 1664-1668].

endogenous β-catenin = experiment: Phosphorylation of endogenous β-catenin in proteasome-inhibited HeLa cells with kinase inhibitors; format: cell-based; settings: H89 5 μM
Method: FIG. 5d: Effects of specific kinase inhibitors on the phosphorylation of endogenous β-catenin at S41,45 and S33 in HeLa cells. CKI-7 was used at 100 μM, H89 at 5 μM and LiCl at 40 mM. β-catenin was detected with anti-β-catenin antibody, or anti-phospho-p-catenin antibodies.
as §1
Western blot and mass spectrometry (MS). Three different commercial anti-β-catenin phospho-peptide antibodies were used: i) Anti-phospho-Thr41/Ser 45 (Cell Signaling Technology), a polyclonal antibody specific for both pT41 and pS45 (otp41,45). ii) Anti-phospho-Ser33/37/Thr41 (Cell Signaling Technology), a polyclonal antibody recognizing pS33 (αp33). […] Antibody specificities were determined by phosphopeptide inhibition studies. […]
In another set of experiments the in vivo role of CKI in S45 phosphorylation was analyzed, using two dominant negative CKIε constructs (dnXCKIε K85R and D128N) [McKay et al. (2001) id ibid.] and a specific CKI inhibitor (CKI-7) [Chijiwa, T. et al. (1989) J Biol Chem 264: 4924-4927]. […]

β-catenin [2] = experiment: Wnt3A conditioned medium stimulation of L, SNU449, HeLa and Jurkat cells, β-catenin level and phosphorylation by Western blot; format: cell-based
Method: FIG. 6a: Wnt3A inhibits S45 phosphorylation. Mouse L cells, SNU449 hepatoma cells [Satoh et al. (2000) Nat Genet 24(3):245-50], HeLa cells and β-catenin transfected Jurkat T cells were incubated (5 hr) with conditioned medium of wt or Wnt3A secreting L cells [Shibamoto et al. (1998) Genes Cells 3: 659-670]. MG-132 or okadaic acid (OKA, 1 μM) were added to the indicated cultures. Endogenous (HeLa, L cells and SNU449) and exogenous (Jurkat) β-catenin was detected with anti-β-catenin antibody, or anti-phospho-β-catenin antibodies. The numbers under the different lanes are relative densitometry figures, referring to the signal intensity of untreated cultures.
The control of β-catenin stability is a major task of the Wnt pathway and is mediated through members of the conserved protein family dishevelled (Dvl 1,2,3) [Boutros and Mlodzik (1999) id ibid.]. […] To this end, several cell lines were first stimulated with Wnt3A [Roelink, H. and R. Nusse. (1991) Genes Dev 5: 381-388; Shibamoto, S. et al. (1998) id ibid.; Lee et al. (1999) id ibid.], and S45 phosphorylation was monitored by Western blot analysis. Wnt stimulation stabilized endogenous β-catenin in mouse L-cells (fibroblasts) (FIG. 6a, lanes 1,2) and exogenous β-catenin in Jurkat lymphocytes (lanes 5,6). […] (lanes 9-11). S45 phosphorylation of β-catenin was evident in proteasome-inhibited L cells (lane 3), Jurkat cells (lane 7) and HeLa cells (lane 14). It was also apparent in okadaic acid-treated SNU449 cells (OKA, lane 10).

β-catenin [3] = experiment: β-catenin degradation in the 293 axin/GSK-3β expression system (Western blot); format: cell-based, human; settings: 293 cells, axin and GSK-3β overexpression, Myc-β-catenin; MG-132 20 μM for 5 hr
Method: as §1, with “T42R, A43R). […] MG-132 (Sigma)” for “T42R, A43R). Additional vectors: Flag-WD, a dominant negative β-TrCP fragment (ΔF-box) [Yaron, A. et al. (1998) Nature 396: 590-594]; Flag-Dvl-1 (a mouse cDNA clone obtained from S-I Yanagawa) [Lee, J. S. et al. (1999) J Biol Chem 274: 21464-21470]; WT and dominant negative Xenopus CKIε (XCKIε-D128N) (provided by T. Shcwarz-Romond) [McKay, R. M. et al. (2001) Dev Biol 235: 378-387]. 24-48 hr after transfection, cells were harvested and processed for the various experiments. MG-132 (Sigma)”, “(0.25 μg/ml). […]” for “(0.25 μg/ml).”

β-catenin [4] = experiment: Okadaic acid treatment of HeLa, SW480 and SNU449 cells, Western blot with anti-phospho β-catenin antibodies; format: cell-based
Method: FIG. 7a: HeLa cells were incubated with MG132 with or without okadaic acid (1 μM for 3 hr). Cell lysates were analyzed by Western blotting with αp45 and αp33.
FIG. 7b: SNU449 cells [Satoh et al. (2000) id ibid.] were treated with okadaic acid (1 μM for 1 or 3 hr), and their lysates tested for S45 phosphorylation by Western blotting,
FIG. 7c: Okadaic Acid induces β-Catenin phosphorylation and degradation in the APC mutated cell line SW480.
Okadaic acid is a selective inhibitor of phosphatase PP2A, while it inhibits to a lower extent (10-50 fold less) phosphatase PP1. Proteasome-inhibited HeLa and SW480 cells (treated with 20 μM MG132) or Ser 37-mutated SNU 449 […] cells [Satoh et al. (2000) id ibid.] were treated with okadaic acid (1 μM) for 1 or 3 hr, harvested and their lysate analyzed by Western blot with anti-phospho β-catenin antibodies: anti-pSer45 and anti-pSer33 (for HeLa and RKO cells only). […] Yet, since S45 phosphorylation precedes the S33 phosphorylation, the okadaic effect may be reserved to S45. This is an example of a compound that can upregulate S45 phosphorylation, while Wnt3A downregulates the same phosphorylation event (FIG. 6a).

phosphatase PP1 = settings: selective inhibitor of phosphatase PP2A; cited from earlier work

Compound: O=S(=O)(NCCNC/C=C/c1ccc(Br)cc1)c1cccc2cnccc12 [H89]
- constitutive S45 phosphorylation of 45PKA β-catenin (β-catenin [1]): inhibited
- wt β-catenin phosphorylation (endogenous β-catenin): no effect

Compound: Wnt3A
- S33/37 phosphorylation (β-catenin [2]; Jurkat, HeLa and L cells): inhibition
- levels of S37 mutated β-catenin (β-catenin [2]; SNU449 hepatoma cell line, conditioned medium 5 hr): did not affect
- S45 phosphorylation (β-catenin [2]; all four cell lines (L, Jurkat, SNU449, HeLa), MG-132 or okadaic acid treated): inhibition
- β-catenin level (stabilization) (β-catenin [2]; endogenous β-catenin in mouse L-cells, exogenous β-catenin in Jurkat lymphocytes, conditioned medium 5 hr): stabilized

Compound: CC(C)C[C@@H](C=O)NC(=O)[C@H](CC(C)C)NC(=O)[C@H](CC(C)C)NC(=O)OCc1ccccc1 [MG-132] (Cbz-Leu-Leu-Leu-aldehyde)
- β-catenin degradation (β-catenin [3]): blocked

Compound: C=C1[C@@H](O)[C@@H]2O[C@]3(CC[C@H](/C=C/[C@@H](C)[C@@H]4CC(C)=C[C@@]5(O[C@H](C[C@@](C)(O)C(=O)O)CC[C@H]5O)O4)O3)CC[C@H]2O[C@@H]1[C@@H](O)C[C@H](C)[C@H]1O[C@@]2(CCCCO2)CC[C@H]1C [okadaic acid]
- β-Catenin phosphorylation and degradation (β-catenin [4]; APC mutated cell line SW480): induces
- phosphorylation signal with anti-pSer45 (β-catenin [4]; MG132-treated HeLa and SW480 cells or SNU 449 cells, okadaic acid 1 μM for 1 or 3 hr): induces a massive phosphorylation signal
- S45 phosphorylation of β-catenin (β-catenin [4]; SNU449 cells, okadaic acid 1 μM): apparent
- phosphorylation signal with anti-pSer33 (β-catenin [4]; okadaic acid 1 μM for 1 or 3 hr, for HeLa and RKO cells only (so in the source)): induces a massive phosphorylation signal
- inhibition of phosphatase PP1 relative to PP2A (phosphatase PP1): 10-50 fold less
